From US11446276B2, “Extreme low dose THC as a therapeutic and prophylactic agent for Alzheimer's disease” (University of South Florida, priority 2015, dated 2022)
“Also recorded” adds a separate entry of the source.

Experiments:
GSK-3β = conditions: 10 mg/kg of body weight of THC; mice; cited from earlier work
N2a/AβPPswe cells = test: MTT toxicity assay; conditions: 36 hours; different concentrations; versus untreated cells; FIG. 9A
Protocol: Cells were plated in 96-well tissue culture plate at 10,000 cells/well, 100 μL/well. 100 μL THC solution was added at 2× concentrations in each well. Control groups are: 1) cells without THC treatment, cells and fresh medium only and 2) blank, wells with medium without cells. All wells were replicated. Wells were incubated for 36 hours. Cell proliferation kit (Roche 11465007001) was then applied for toxicity assay according to the standard protocol. 10 μL of MTT reagent was first added to each well and incubated at 37° C. for 4 hours. Then 100 μL of solubilization solution was added to each well. These were incubated overnight and optical density (OD) values were read at 575 nm. The percentage of cell viability was calculated as: Cell viability %=(OD−OD blank)/(OD control−OD blank).

[1] = in vivo; cited from earlier work
[2] = tested on: phosphorylated Tau (pTau); test: Western blot of phosphorylated Tau in N2a/AβPPswe cells; assay type: cell-based
Protocol: FIG. 6C is a western blot assay showing Tau and phosphorylated Tau (pTau) levels in N2a/AβPPswe treated with 25 nM THC, 2.5 nM THC, or 0.25 nM THC. Anti-Tau, anti-pTau and β-actin antibodies were used to detect Tau and pTau, and β-actin that served as the protein loading control.
FIG. 11C is a western blot assay showing Tau and phosphorylated Tau levels in N2a/AβPPswe treated as follows: untreated (CTRL, control), or 10^−5 M Melatonin with 2.5 nM THC, 10^−6 M Melatonin with 2.5 nM THC. Anti-Tau and anti-pTau antibodies were used to […] that served as the protein loading control.
Amyloid processing and ancillary amyloid protein effects were next tested. After stripping the Western, and restaining for AβPP, using anti-Tau (Chuanhai Cao, Tampa, Fla.), anti-pTau (Chuanhai Cao, Tampa, Fla.), and anti-β-actin antibodies (Cat #A54441, Sigma Aldrich, Merck KGaA; Darmstadt, Germany)) were used to detect Tau levels against a protein loading control (β-actin). After data was collected the membrane was stripped using a western blot striping buffer (Cat #21059, Thermo Fisher Scientific, Waltham, Mass.) and stained for AβPP using 6E10 antibody (Cat #803002, BioLegend, Inc., San Diego, Calif.). Anti-mouse secondary horseradish peroxidase (Cat #A9044, Sigma Aldrich, Merck KGaA; Darmstadt, Germany) secondary antibodies were used.

CB1 receptor = test: RT-PCR for CB1 receptor expression level; conditions: cells treated with low doses of THC
[3] = biological target: AChE induced Aβ aggregation (Homo sapiens, UniProt P22303); conditions: THC 50 μM; cited from earlier work
Sequence of AChE induced Aβ aggregation (P22303 32-614): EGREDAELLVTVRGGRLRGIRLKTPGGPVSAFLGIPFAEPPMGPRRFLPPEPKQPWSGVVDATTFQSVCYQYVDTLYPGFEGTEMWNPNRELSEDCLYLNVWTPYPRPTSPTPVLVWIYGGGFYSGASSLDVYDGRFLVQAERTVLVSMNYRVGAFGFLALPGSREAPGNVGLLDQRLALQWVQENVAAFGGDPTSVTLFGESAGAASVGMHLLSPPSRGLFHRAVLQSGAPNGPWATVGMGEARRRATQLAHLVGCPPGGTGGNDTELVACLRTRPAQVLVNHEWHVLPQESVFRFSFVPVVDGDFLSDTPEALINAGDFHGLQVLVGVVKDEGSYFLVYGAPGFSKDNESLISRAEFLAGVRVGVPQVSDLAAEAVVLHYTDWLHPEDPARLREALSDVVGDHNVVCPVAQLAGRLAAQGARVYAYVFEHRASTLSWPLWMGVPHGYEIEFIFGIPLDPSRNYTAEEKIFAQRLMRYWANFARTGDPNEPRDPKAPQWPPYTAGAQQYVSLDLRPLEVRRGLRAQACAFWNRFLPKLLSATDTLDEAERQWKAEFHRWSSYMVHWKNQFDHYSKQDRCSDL

Aβ in N2a/AβPPswe cells = test: Sandwich ELISA of Aβ in N2a/AβPPswe cells treated with THC and CB1 inhibitor rimonabant; assay type: cell-based, human; conditions: 25 nM THC with no rimonabant; 36 hour and later time points; FIG. 2
Protocol: The mechanism of action was elucidated for THC's effect on Aβ levels using a sandwich ELISA assay. N2a/AβPPswe cells, as discussed in Example 1, were suspended to 2×10^5/mL, 3 mL plated into each well, and grown in DMEM with 10% fetal bovine serum, 100 U/mL penicillin, 100 μg/mL streptomycin, and 400 μg/mL G418 (Invitrogen), at 37° C. in the presence of 5% CO2. N2a/AβPPswe cells were subcultured using trypsin, and pipetted numerous times to ensure cells were separated into individual cells. Cells were counted, as provided in Example 1, and proper amount of cell medium and fresh medium was added into new flasks according to the ratio of dilution. Pipetting was performed 10 times to homogenize cells, and 3 mL of cells were seeded into medium into each 6 well plate. When one pipette was used up, the cells were mixed in the flask before using them for the next pipette. Compounds were suspended in DMSO.
12 hours after cells were plated, cells were treated with 25 nM of Δ9-THC (T4764-1ML Sigma Aldrich, Merck KGaA; Darmstadt, Germany), with the known inhibitor of the CB1 receptor, rimonabant, at 0 μM, 100 μM, 10 μM, 1 μM, or 0.1 μM rimonabant. Untreated N2a/AβPPswe cells were used as a control. Treatment was then washed out, i.e. the medium was then removed from the cultures and 3 mL of media containing the treatment compounds were added. Cells were collected at 12 hours afterwards, 48 hours afterwards, 60 hours afterwards, and 72 hours afterwards, and ELISA was conducted on the cells.
ELISA assay was performed on the cells using 50 μL of goat anti-PWT1-42 antibody solution, which was incubated overnight, followed by a 1-hour incubation with 0.1% I-block buffer. The tissue culture supernatant was diluted 1:10 with diluent buffer containing a protease inhibitor. Standards were prepared by serial dilution, as provided in Example 1. The plate was washed and 50 μL of sample or standard was added with triplication. 50 μL of both Biosource 40/42 (HS) (primary antibody) Aβ and a standard solution was added to each well and incubated for 3 hours followed by 5× wash with PBST. […]

[4] = biological target: Aβ peptide amino acids 1-10, the major B-cell epitope (Homo sapiens, UniProt P05067); test: ELISA for THC interference with the major B cell epitope of Aβ; assay type: binding; conditions: each increasing concentration of THC; FIG. 3B
Sequence of Aβ peptide amino acids 1-10, the major B-cell epitope (P05067 672-711 limits assumed): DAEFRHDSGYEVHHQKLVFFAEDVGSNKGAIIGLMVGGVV
Protocol: In untreated samples, Aβ peptide increased in intensity for the first 20 minutes, followed by a plateauing of fluorescence at around 30 minutes, at which time the intensity remained constant for the duration of the study. […] Therefore, THC's direct interaction with the Aβ peptide will not dampen an immune response to clear the Aβ peptide. Further analysis with western blot was performed measuring the anti-aggregation properties of THC with Aβ peptide.

In the case of `CCCCCc1cc(O)c2c(c1)OC(C)(C)[C@@H]1CCC(C)=C[C@@H]21` [THC, Δ9-tetrahydrocannabinol], the “Phosphorylation of GSK-3β” value (GSK-3β) is listed as “increased phosphorylation of GSK-3β”, the “Toxicity (reduction of MTT, OD)” value (N2a/AβPPswe cells) is listed as “no significant difference from the control; also recorded: no toxicity; also recorded: lack of toxicity” and the Bioavailability [1] is listed as 30%. For the same molecule, the “Ratio of pTau:Tau among THC concentrations” value ([2]; 2.5 nM THC, FIG. 8) was “peak of pTau:Tau ratio”, the “Phosphorylated Tau levels, THC alone” value ([2]; 25 nM, 2.5 nM, 0.25 nM THC, FIGS. 6C, 6D) was “reduction by THC in a dose-dependent manner; also recorded: lowers the phosphorylation of tau in a dose dependent manner; also recorded: decreases phosphorylated Tau” and the “Ratio of phosphorylated Tau to Tau, THC alone” value ([2]; 25 nM, 2.5 nM, 0.25 nM THC, FIGS. 8, 13) was “increase the ratio of pTau:Tau; also recorded: increase in phosphorylated Tau; also recorded: increases phosphorylated Tau”. For the same molecule, the “CB1 receptor expression level (RT-PCR)” value (CB1 receptor) was “no significant upregulation”, the “AChE induced Aβ aggregation” value [3] was “prevents AChE induced Aβ aggregation” and the Aβ levels (Aβ in N2a/AβPPswe cells) was “significantly lower Aβ; also recorded: marked decreases”. For the same molecule, the “Interference with the major B cell epitope of Aβ (ELISA absorbance)” value [4] was “No identified interference; also recorded: no significant difference in absorbance”.
